Experimental data from ChEMBL document CHEMBL4507279, “Data for DCP probe BI-9627” (2021).

Legend:
[1] = target: AP2-associated protein kinase 1 (Homo sapiens) (UniProt Q2M2I8); settings: Compound concentration 1000.0 nM
[2] = test system: Tyrosine-protein kinase ABL1 (Homo sapiens), P00519 [Q252H]; settings: Compound concentration 1000.0 nM
[3] = target: Tyrosine-protein kinase ABL1 (Homo sapiens) (UniProt P00519); settings: Compound concentration 1000.0 nM
[4] = target: RAC-alpha serine/threonine-protein kinase (Homo sapiens) (UniProt P31749); settings: Compound concentration 1000.0 nM
[5] = target: ALK tyrosine kinase receptor (Homo sapiens) (UniProt Q9UM73); settings: Compound concentration 1000.0 nM
[6] = target: Protein-tyrosine kinase 6 (Homo sapiens) (UniProt Q13882); settings: Compound concentration 1000.0 nM
Sequence of Protein-tyrosine kinase 6 (Homo sapiens) (Q13882 whole entry, looked up): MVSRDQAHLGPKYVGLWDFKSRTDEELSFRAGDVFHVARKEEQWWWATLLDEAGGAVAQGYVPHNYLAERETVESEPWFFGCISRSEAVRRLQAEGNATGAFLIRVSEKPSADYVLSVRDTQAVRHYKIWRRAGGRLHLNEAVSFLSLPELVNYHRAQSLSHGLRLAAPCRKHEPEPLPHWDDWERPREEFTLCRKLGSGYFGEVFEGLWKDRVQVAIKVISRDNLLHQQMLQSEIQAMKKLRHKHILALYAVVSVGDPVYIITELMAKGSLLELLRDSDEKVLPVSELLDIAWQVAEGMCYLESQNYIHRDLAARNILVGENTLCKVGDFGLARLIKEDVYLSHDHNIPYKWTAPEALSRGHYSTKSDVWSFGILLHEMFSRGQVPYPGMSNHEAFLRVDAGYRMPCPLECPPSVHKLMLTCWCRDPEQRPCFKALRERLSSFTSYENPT

[7] = target: Calcium/calmodulin-dependent protein kinase type II subunit beta (Homo sapiens) (UniProt Q13554); settings: Compound concentration 1000.0 nM
[8] = target: Cyclin-dependent kinase 19 (Homo sapiens) (UniProt Q9BWU1); settings: Compound concentration 1000.0 nM
[9] = target: Cyclin-dependent kinase-like 1 (Homo sapiens) (UniProt Q00532); settings: Compound concentration 1000.0 nM
[10] = target: Casein kinase I isoform epsilon (Homo sapiens) (UniProt P49674); settings: Compound concentration 1000.0 nM
[11] = target: Death-associated protein kinase 1 (Homo sapiens) (UniProt P53355); settings: Compound concentration 1000.0 nM
[12] = target: Serine/threonine-protein kinase 17B (Homo sapiens) (UniProt O94768); settings: Compound concentration 1000.0 nM
[13] = target: Fibroblast growth factor receptor 2 (Homo sapiens) (UniProt P21802); settings: Compound concentration 1000.0 nM
[14] = target: Tyrosine-protein kinase Fgr (Homo sapiens) (UniProt P09769); settings: Compound concentration 1000.0 nM
Sequence of Tyrosine-protein kinase Fgr (Homo sapiens) (P09769 2-529 limits assumed): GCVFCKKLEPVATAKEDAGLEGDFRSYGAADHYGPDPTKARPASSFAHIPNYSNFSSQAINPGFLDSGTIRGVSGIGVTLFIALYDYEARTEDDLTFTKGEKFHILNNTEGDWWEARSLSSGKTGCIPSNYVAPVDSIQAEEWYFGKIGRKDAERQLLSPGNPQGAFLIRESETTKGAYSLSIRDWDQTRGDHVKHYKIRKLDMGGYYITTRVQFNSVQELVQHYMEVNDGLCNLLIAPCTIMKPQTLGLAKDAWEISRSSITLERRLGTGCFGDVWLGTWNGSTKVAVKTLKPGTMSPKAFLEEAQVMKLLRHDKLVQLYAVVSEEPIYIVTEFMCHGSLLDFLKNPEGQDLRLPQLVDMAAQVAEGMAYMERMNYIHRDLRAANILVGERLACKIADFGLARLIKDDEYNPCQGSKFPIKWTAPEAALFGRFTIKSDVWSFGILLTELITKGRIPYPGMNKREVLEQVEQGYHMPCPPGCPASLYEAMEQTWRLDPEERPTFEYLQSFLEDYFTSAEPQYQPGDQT

[15] = target: Cyclin-G-associated kinase (Homo sapiens) (UniProt O14976); settings: Compound concentration 1000.0 nM
[16] = target: Glycogen synthase kinase-3 beta (Homo sapiens) (UniProt P49841); settings: Compound concentration 1000.0 nM
Sequence of Glycogen synthase kinase-3 beta (Homo sapiens) (P49841 whole entry, looked up): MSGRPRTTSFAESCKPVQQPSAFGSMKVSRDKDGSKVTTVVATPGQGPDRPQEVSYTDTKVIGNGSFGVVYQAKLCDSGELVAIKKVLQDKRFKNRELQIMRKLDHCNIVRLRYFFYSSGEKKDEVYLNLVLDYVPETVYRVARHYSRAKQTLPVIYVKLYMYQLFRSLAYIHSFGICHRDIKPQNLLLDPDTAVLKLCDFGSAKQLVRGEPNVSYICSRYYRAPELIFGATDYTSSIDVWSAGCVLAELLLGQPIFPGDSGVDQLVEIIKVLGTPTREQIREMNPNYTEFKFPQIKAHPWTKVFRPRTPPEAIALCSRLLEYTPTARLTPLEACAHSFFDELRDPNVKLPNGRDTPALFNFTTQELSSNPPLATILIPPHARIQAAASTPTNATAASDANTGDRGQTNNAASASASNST

[17] = target: Hormonally up-regulated neu tumor-associated kinase (Homo sapiens) (UniProt P57058); settings: Compound concentration 1000.0 nM
Sequence of Hormonally up-regulated neu tumor-associated kinase (Homo sapiens) (P57058 whole entry): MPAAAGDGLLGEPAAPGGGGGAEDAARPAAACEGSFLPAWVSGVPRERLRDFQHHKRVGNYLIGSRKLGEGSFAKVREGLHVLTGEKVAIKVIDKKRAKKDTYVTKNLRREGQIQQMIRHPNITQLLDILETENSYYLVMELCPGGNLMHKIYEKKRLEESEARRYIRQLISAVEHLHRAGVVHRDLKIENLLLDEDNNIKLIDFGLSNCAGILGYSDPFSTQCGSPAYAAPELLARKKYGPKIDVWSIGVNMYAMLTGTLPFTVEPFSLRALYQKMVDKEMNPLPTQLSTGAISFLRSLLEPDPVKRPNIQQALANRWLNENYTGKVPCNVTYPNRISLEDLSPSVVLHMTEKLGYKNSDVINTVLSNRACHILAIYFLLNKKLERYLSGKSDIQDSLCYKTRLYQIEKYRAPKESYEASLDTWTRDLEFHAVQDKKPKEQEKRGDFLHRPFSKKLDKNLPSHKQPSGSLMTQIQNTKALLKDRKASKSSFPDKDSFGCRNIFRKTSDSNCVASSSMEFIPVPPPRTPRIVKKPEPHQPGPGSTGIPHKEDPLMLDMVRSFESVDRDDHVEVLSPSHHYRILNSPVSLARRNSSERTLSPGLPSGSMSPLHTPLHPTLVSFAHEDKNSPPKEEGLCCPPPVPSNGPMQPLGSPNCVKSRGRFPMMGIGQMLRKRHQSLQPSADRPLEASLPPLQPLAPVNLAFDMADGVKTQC

[18] = target: Inhibitor of nuclear factor kappa-B kinase subunit alpha (Homo sapiens) (UniProt O15111); settings: Compound concentration 1000.0 nM
[19] = target: Tyrosine-protein kinase ITK/TSK (Homo sapiens) (UniProt Q08881); settings: Compound concentration 1000.0 nM
[20] = target: Tyrosine-protein kinase JAK1 (Homo sapiens) (UniProt P23458); settings: Compound concentration 1000.0 nM
[21] = target: Dual specificity mitogen-activated protein kinase kinase 5 (Homo sapiens) (UniProt Q13163); settings: Compound concentration 1000.0 nM
[22] = test system: Hepatocyte growth factor receptor (Homo sapiens), P08581 [M1250T]; settings: Compound concentration 1000.0 nM
[23] = target: Serine/threonine-protein kinase 38-like (Homo sapiens) (UniProt Q9Y2H1); settings: Compound concentration 1000.0 nM
[24] = target: Serine/threonine-protein kinase Nek11 (Homo sapiens) (UniProt Q8NG66); settings: Compound concentration 1000.0 nM
[25] = target: Mitogen-activated protein kinase 13 (Homo sapiens) (UniProt O15264); settings: Compound concentration 1000.0 nM
[26] = target: Platelet-derived growth factor receptor alpha (Homo sapiens) (UniProt P16234); settings: Compound concentration 1000.0 nM
Sequence of Platelet-derived growth factor receptor alpha (Homo sapiens) (P16234 whole entry): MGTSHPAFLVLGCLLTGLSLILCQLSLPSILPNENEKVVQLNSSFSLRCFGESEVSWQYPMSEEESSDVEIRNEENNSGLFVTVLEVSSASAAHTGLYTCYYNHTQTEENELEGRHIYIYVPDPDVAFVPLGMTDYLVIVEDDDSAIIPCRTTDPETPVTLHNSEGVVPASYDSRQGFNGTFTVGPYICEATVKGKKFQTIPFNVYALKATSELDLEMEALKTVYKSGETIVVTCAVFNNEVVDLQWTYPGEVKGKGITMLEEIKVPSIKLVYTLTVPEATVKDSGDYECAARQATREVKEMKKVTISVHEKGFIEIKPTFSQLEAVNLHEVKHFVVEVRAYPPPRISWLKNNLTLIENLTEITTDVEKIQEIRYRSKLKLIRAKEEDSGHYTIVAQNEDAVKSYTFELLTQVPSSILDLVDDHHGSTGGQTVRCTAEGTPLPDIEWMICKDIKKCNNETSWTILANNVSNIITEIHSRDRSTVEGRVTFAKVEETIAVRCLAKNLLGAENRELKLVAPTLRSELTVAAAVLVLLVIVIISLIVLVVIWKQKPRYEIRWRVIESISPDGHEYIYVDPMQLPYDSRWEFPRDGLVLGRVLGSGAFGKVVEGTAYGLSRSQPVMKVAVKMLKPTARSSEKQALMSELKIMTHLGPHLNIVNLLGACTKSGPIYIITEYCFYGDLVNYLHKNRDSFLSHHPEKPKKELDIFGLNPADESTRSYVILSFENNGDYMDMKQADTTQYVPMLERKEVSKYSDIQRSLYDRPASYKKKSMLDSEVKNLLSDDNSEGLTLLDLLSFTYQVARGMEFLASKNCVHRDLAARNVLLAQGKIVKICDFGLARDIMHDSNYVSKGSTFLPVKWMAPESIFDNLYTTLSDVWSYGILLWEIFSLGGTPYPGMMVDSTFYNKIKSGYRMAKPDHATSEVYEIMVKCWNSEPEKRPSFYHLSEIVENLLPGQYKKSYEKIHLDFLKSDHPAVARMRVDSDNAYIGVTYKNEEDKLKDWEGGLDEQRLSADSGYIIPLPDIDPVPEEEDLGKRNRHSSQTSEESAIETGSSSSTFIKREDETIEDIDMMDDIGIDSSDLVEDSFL

[27] = target: Calcium-dependent protein kinase 1 (Plasmodium falciparum) (UniProt P62344); settings: Compound concentration 1000.0 nM
[28] = test system: Phosphatidylinositol 4,5-bisphosphate 3-kinase catalytic subunit alpha isoform (Homo sapiens), P42336 [I800L]; settings: Compound concentration 1000.0 nM
[29] = target: Membrane-associated tyrosine- and threonine-specific cdc2-inhibitory kinase (Homo sapiens) (UniProt Q99640); settings: Compound concentration 1000.0 nM
[30] = target: Serine/threonine-protein kinase PLK2 (Homo sapiens) (UniProt Q9NYY3); settings: Compound concentration 1000.0 nM
Sequence of Serine/threonine-protein kinase PLK2 (Homo sapiens) (Q9NYY3 whole entry, looked up): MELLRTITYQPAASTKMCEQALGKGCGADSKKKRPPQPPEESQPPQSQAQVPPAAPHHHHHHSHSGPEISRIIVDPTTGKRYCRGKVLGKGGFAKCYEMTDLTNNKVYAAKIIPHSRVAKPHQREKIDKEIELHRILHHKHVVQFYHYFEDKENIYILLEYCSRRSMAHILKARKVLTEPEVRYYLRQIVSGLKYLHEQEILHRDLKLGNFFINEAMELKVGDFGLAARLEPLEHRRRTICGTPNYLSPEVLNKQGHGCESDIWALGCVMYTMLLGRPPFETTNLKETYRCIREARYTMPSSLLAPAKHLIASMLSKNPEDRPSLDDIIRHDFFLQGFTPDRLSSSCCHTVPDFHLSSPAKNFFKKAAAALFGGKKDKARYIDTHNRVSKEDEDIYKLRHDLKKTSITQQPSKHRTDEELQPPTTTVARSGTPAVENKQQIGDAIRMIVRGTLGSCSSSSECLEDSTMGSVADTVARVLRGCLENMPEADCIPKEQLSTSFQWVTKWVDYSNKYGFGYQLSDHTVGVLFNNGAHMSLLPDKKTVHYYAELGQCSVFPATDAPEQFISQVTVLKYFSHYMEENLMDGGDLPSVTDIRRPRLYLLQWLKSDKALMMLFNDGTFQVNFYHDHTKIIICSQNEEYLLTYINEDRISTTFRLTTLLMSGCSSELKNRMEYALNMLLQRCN

[31] = target: Uncharacterized serine/threonine-protein kinase SBK3 (Homo sapiens) (UniProt P0C264); settings: Compound concentration 1000.0 nM
[32] = target: Serine/threonine-protein kinase Sgk2 (Homo sapiens) (UniProt Q9HBY8); settings: Compound concentration 1000.0 nM
[33] = target: Serine/threonine-protein kinase 36 (Homo sapiens) (UniProt Q9NRP7); settings: Compound concentration 1000.0 nM
[34] = target: Activated CDC42 kinase 1 (Homo sapiens) (UniProt Q07912); settings: Compound concentration 1000.0 nM
[35] = target: NT-3 growth factor receptor (Homo sapiens) (UniProt Q16288); settings: Compound concentration 1000.0 nM
[36] = target: Serine/threonine-protein kinase ULK3 (Homo sapiens) (UniProt Q6PHR2); settings: Compound concentration 1000.0 nM
[37] = target: Phosphatidylinositol 3-kinase catalytic subunit type 3 (Homo sapiens) (UniProt Q8NEB9); settings: Compound concentration 1000.0 nM
[38] = target: Wee1-like protein kinase 2 (Homo sapiens) (UniProt P0C1S8); settings: Compound concentration 1000.0 nM
[39] = target: Serine/threonine-protein kinase WNK2 (Homo sapiens) (UniProt Q9Y3S1); settings: Compound concentration 1000.0 nM
[40] = target: Serine/threonine-protein kinase WNK3 (Homo sapiens) (UniProt Q9BYP7); settings: Compound concentration 1000.0 nM
[41] = target: Serine/threonine-protein kinase 32B (Homo sapiens) (UniProt Q9NY57); settings: Compound concentration 1000.0 nM
[42] = target: Mitogen-activated protein kinase kinase kinase 19 (Homo sapiens) (UniProt Q56UN5); settings: Compound concentration 1000.0 nM
[43] = target: Mitogen-activated protein kinase kinase kinase 20 (Homo sapiens) (UniProt Q9NYL2); settings: Compound concentration 1000.0 nM
[44] = target: 5-hydroxytryptamine receptor 1D (Homo sapiens) (UniProt P28221); settings: Compound concentration 10.0 uM
[45] = target: Sodium-dependent noradrenaline transporter (Homo sapiens) (UniProt P23975); settings: Compound concentration 10.0 uM

Sequence of AP2-associated protein kinase 1 (Homo sapiens) (Q2M2I8 whole entry, looked up): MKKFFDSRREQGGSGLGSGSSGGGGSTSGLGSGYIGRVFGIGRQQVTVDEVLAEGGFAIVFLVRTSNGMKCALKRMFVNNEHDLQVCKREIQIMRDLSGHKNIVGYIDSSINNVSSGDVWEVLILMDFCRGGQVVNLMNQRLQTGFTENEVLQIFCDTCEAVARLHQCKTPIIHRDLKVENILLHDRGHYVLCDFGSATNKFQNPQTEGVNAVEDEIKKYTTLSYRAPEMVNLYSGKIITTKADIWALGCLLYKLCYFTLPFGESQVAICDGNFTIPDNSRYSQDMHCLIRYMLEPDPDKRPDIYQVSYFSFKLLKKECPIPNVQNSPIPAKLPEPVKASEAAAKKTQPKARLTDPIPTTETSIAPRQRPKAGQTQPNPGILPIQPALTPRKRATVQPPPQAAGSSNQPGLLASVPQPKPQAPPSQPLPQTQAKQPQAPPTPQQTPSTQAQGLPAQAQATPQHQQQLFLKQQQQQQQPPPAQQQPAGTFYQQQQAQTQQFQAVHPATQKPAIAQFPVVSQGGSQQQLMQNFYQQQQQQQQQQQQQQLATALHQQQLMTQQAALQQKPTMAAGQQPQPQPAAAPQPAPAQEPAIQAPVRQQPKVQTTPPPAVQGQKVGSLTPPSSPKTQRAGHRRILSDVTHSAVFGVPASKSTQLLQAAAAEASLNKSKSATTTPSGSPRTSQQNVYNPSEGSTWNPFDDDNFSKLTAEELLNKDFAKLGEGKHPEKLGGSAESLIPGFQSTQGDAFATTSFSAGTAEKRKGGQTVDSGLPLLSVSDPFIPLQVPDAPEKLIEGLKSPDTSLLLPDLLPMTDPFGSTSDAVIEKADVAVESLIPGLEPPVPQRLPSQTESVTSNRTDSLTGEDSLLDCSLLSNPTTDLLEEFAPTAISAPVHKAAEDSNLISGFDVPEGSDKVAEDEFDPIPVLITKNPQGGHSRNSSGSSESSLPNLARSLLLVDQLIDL

CC(=O)N1CCC(c2ccc(C(=O)NC3=NCCN3)cc2C(F)(F)F)CC1 [BI 0054]
inactive: residual activity [1] 100% | residual activity [2] 86% | residual activity [3] 83% | residual activity [4] 100% | residual activity [5] 89% | residual activity [6] 88% | residual activity [7] 88% | residual activity [8] 100% | residual activity [9] 100% | residual activity [10] 100% | residual activity [11] 100% | residual activity [12] 100% | residual activity [13] 86% | residual activity [14] 100% | residual activity [15] 97% | residual activity [16] 88% | residual activity [17] 100% | residual activity [18] 90% | residual activity [19] 91% | residual activity [20] 100% | residual activity [21] 92% | residual activity [22] 84% | residual activity [23] 90% | residual activity [24] 100% | residual activity [25] 75% | residual activity [26] 92% | residual activity [27] 90% | residual activity [28] 94% | residual activity [29] 100% | residual activity [30] 80% | residual activity [31] 100% | residual activity [32] 100% | residual activity [33] 83% | residual activity [34] 100% | residual activity [35] 100% | residual activity [36] 89% | residual activity [37] 88% | residual activity [38] 100% | residual activity [39] 100% | residual activity [40] 86% | residual activity [41] 100% | residual activity [42] 100% | residual activity [43] 88% | inhibition [44] 9.64% | inhibition [45] 21.5%

CC(=O)N1CCC(c2ccc(C(=O)NC(=N)N)cc2C(F)(F)F)CC1 [BI 9627]
inactive: residual activity [1] 100% | residual activity [2] 100% | residual activity [3] 89% | residual activity [4] 100% | residual activity [5] 93% | residual activity [6] 100% | residual activity [7] 100% | residual activity [8] 100% | residual activity [9] 100% | residual activity [10] 100% | residual activity [11] 100% | residual activity [12] 100% | residual activity [13] 100% | residual activity [14] 91% | residual activity [15] 100% | residual activity [16] 85% | residual activity [17] 100% | residual activity [18] 100% | residual activity [19] 100% | residual activity [20] 100% | residual activity [21] 86% | residual activity [22] 100% | residual activity [23] 99% | residual activity [24] 100% | residual activity [25] 83% | residual activity [26] 100% | residual activity [27] 87% | residual activity [28] 90% | residual activity [29] 100% | residual activity [30] 93% | residual activity [31] 100% | residual activity [32] 100% | residual activity [33] 100% | residual activity [34] 100% | residual activity [35] 100% | residual activity [36] 80% | residual activity [37] 100% | residual activity [38] 100% | residual activity [39] 98% | residual activity [40] 84% | residual activity [41] 89% | residual activity [42] 100% | residual activity [43] 100% | inhibition [44] 34% | inhibition [45] 28.6%
